pIC50: −log10 of the molar value.
Tests used:
Bile acid receptor [1] = target: T1, Bile acid receptor (Homo sapiens, UniProt Q96RI1); assay: Antagonist activity at GST-tagged FXR LBD (unknown origin) assessed as inhibition of GW4064-induced fluorecein-labeled SRC2-2 coactivator recruitment by Lanthascreen TR-FRET assay
T1 sequence (Q96RI1 whole entry): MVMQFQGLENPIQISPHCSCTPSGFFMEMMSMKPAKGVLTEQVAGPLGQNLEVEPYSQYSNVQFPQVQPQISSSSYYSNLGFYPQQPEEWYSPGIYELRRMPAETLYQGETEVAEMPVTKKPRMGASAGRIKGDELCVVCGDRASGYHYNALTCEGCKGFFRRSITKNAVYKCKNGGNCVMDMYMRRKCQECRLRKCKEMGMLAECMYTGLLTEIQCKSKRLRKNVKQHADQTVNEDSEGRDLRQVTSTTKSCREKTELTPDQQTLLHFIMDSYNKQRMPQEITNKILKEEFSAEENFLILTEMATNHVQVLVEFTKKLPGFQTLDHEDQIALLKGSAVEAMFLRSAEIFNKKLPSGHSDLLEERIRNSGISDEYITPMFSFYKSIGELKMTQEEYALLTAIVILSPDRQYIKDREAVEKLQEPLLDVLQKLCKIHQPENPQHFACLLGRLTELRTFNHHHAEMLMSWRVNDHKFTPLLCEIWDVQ

Bile acid receptor [2] = target: T1, Bile acid receptor; assay: Antagonist activity at human FXR expressed in Huh7 cells assessed as inhibition of CDCA-induced FXR response element driven luciferase activity after 24 hrs; assay type: cell-based
Huh-7 = assay: Cytotoxicity against human HuH7 cells assessed as reduction in cell viability incubated for 24 hrs by MTT assay; assay type: cell-based; conditions: Huh-7, 24 h
[3] = Tmax in Sprague-Dawley rat at 30 mg/5 ml/kg, po dissolved in 40% HP-beta-CD; assay type: ADME, organism-based; conditions: in vivo, 30 mg/kg
[4] = Cmax in Sprague-Dawley rat at 30 mg/5 ml/kg, po dissolved in 40% HP-beta-CD; assay type: ADME, organism-based; design: dose 5 ml/kg, route oral; conditions: in vivo, 30 mg/kg
[5] = AUC (0 to 360 mins) in Sprague-Dawley rat at 30 mg/5 ml/kg, po dissolved in 40% HP-beta-CD by trapezoidal method; assay type: ADME, organism-based; design: time < 6 hr, dose 5 ml/kg, route oral; conditions: in vivo, 30 mg/kg
[6] = Drug excretion in Sprague-Dawley rat urine at 1 mg/ml/kg, iv dissolved in 10% HP-beta-CD by LC-MS/MS analysis; assay type: ADME, organism-based; conditions: 1 mg/kg, read-out: Drug excretion
[7] = Terminal half life in Sprague-Dawley rat at 1 mg/ml/kg, iv dissolved in 10% HP-beta-CD measured after 60 to 360 min after administration; assay type: ADME, organism-based; conditions: in vivo, 1 mg/kg
[8] = Volume of distribution at steady state in Sprague-Dawley rat at 1 mg/ml/kg, iv dissolved in 10% HP-beta-CD; assay type: ADME, organism-based; conditions: in vivo, 1 mg/kg, read-out: Vdss
[9] = AUC (0 to 360 mins) in Sprague-Dawley rat at 1 mg/ml/kg, iv dissolved in 10% HP-beta-CD by LC-MS/MS analysis; assay type: ADME, organism-based; design: dose 1 mg/ml/kg, time < 6 hr, route intravenous; conditions: in vivo, 1 mg/kg
[10] = Oral bioavailability in Sprague-Dawley rat at 30 mg/5 ml/kg dissolved in 40% HP-beta-CD; assay type: ADME, organism-based; conditions: in vivo, 30 mg/kg
[11] = Drug concentration in liver of Sprague-Dawley rat at 30 mg/kg, po dissolved in 40% HP-beta-CD measured after 360 mins by LC-MS/MS analysis; assay type: ADME, organism-based; conditions: read-out: Drug uptake
[12] = Drug concentration in ileum of Sprague-Dawley rat at 30 mg/kg, po dissolved in 40% HP-beta-CD measured after 360 mins by LC-MS/MS analysis; assay type: ADME, organism-based; conditions: read-out: Drug uptake
[13] = Ratio of drug concentration in liver to plasma of Sprague-Dawley rat at 30 mg/kg, po dissolved in 40% HP-beta-CD measured after 360 mins by LC-MS/MS analysis; assay type: ADME, organism-based
[14] = Ratio of drug concentration in ileum to plasma of Sprague-Dawley rat at 30 mg/kg, po dissolved in 40% HP-beta-CD measured after 360 mins by LC-MS/MS analysis; assay type: ADME, organism-based

| pIC50 (Bile acid receptor [1]) | pIC50 (Bile acid receptor [2]) | SMILES | pIC50 (Huh-7) | further results |
| --- | --- | --- | --- | --- |
| 7.46 | 10.30 | Cc1ccc2nc([C@H](CC3CCN(C(=O)C(C)C)CC3)N3C(=O)CN(c4ccc(Oc5ccc(F)cc5)cc4)C3=O)n(C)c2c1 | < 4.00 | – |
| 7.29 | > 12.00 | Cc1ccc2c(c1)nc([C@H](CC1CCN(C(=O)C(C)C)CC1)N1C(=O)CN(c3ccc(Oc4ccccc4)cc3)C1=O)n2C | < 4.00 | – |
| 4.41 | 5.57 | Cc1ccc2nc([C@H](Cc3ccc(C(=O)NC(C)C)cc3)N3C(=O)CN(c4ccc(Oc5ccccc5)cc4)C3=O)n(C)c2c1 | < 4.00 | – |
| 3.90 | 7.22 | Cc1ccc2nc([C@H](CC3CCN(S(=O)(=O)C(C)C)CC3)N3C(=O)CN(c4ccc(Oc5ccccc5)cc4)C3=O)n(C)c2c1 | < 4.00 | – |
| 5.55 | 5.96 | CCN(CC)C(=O)c1ccc(C[C@@H](c2nc3ccc(C)cc3n2C)N2C(=O)CN(c3ccc(Oc4ccccc4)cc3)C2=O)cc1 | < 4.00 | – |
| 4.56 | 5.20 | Cc1ccc2nc([C@H](Cc3ccc(C(N)=O)cc3)N3C(=O)CN(c4ccc(Oc5ccccc5)cc4)C3=O)n(C)c2c1 | < 4.00 | – |
| – | > 12.00 | Cc1ccc2nc([C@H](CC3CCN(C(=O)C(C)C)CC3)N3C(=O)CN(c4ccc(Oc5ccccc5)cc4)C3=O)n(C)c2c1 | – | Tmax [3]: 0.5 h; Cmax [4]: 53.4 ng/mL; AUC(0-t) at 6 h [5]: 146 ng·h/mL; dose excreted [6]: 0.64%; half-life ([7]; read-out: beta t1/2): 2.07 h; Vd [8]: 8.9 L/kg; AUC(0-t) at 6 h [9]: 182 ng·h/mL; bioavailability [10]: 2.76%; concentration at 6 h [11]: 225 ng/g; concentration at 6 h [12]: 135 ng/g |
| 6.74 | 7.28 | Cc1ccc2nc([C@H](CC3CCN(C(=O)C(C)C)CC3)N3C(=O)CN(c4ccc(OC5CCCCC5)cc4)C3=O)n(C)c2c1 | 4.19 | – |
| < 3.40 | < 4.70 | Cc1ccc2nc([C@H](CC3CCN(C(=O)C(C)C)CC3)NC(=O)Nc3ccc(Oc4ccccc4)cc3)n(C)c2c1 | < 4.00 | – |
| < 3.40 | < 4.70 | Cc1ccc2nc([C@H](CC3CCN(C(=O)C(C)C)CC3)NC(=O)c3ccc(Oc4ccccc4)cc3)n(C)c2c1 | < 4.00 | – |
| 8.15 | > 12.00 | COc1ccc(Oc2ccc(N3CC(=O)N([C@@H](CC4CCN(C(=O)C(C)C)CC4)c4nc5ccc(C)cc5n4C)C3=O)cc2)cc1 | < 4.00 | Tmax [3]: 2 h; AUC(0-t) at 6 h [5]: 1580 ng·h/mL; dose excreted [6]: 0.23%; half-life [7]: 1.37 h; Vd [8]: 3.86 L/kg; AUC(0-t) at 6 h [9]: 292 ng·h/mL; Kp at 6 h [13]: 15; Kp at 6 h [14]: 13; concentration at 6 h [11]: 1540 ng/g; concentration at 6 h [12]: 1370 ng/g |
| 7.57 | 8.03 | Cc1ccc2nc([C@H](CC3CCN(C(=O)C(C)C)CC3)N3C(=O)CN(c4ccc(Oc5ccc(Cl)cc5)cc4)C3=O)n(C)c2c1 | < 4.00 | – |
| 5.32 | 6.10 | Cc1ccc2nc([C@H](CC3CCN(C(=O)C(C)C)CC3)N3CCN(c4ccc(Oc5ccccc5)cc4)C3=O)n(C)c2c1 | < 4.00 | – |
| 6.48 | 8.62 | Cc1ccc2nc([C@H](CC3CCN(C(=O)C(C)C)CC3)N3C(=O)CN(c4ccc(Oc5ccccc5)cc4)C3=O)n(CC(C)C)c2c1 | < 4.00 | – |
| 5.82 | 7.74 | Cc1ccc2nc([C@H](CC3CCN(C(=O)NC(C)C)CC3)N3C(=O)CN(c4ccc(Oc5ccccc5)cc4)C3=O)n(C)c2c1 | < 4.00 | – |
| < 3.40 | 7.09 | Cc1ccc2nc([C@H](Cc3ccccc3)N3C(=O)CN(c4ccc(Oc5ccccc5)cc4)C3=O)n(C)c2c1 | < 4.00 | – |
| 4.82 | 6.07 | Cc1ccc2nc([C@H](CC3CCN(C(=O)C(C)C)CC3)N3CC(=O)N(c4ccc(Oc5ccccc5)cc4)CC3=O)n(C)c2c1 | < 4.00 | – |
| 5.54 | 6.01 | Cc1ccc2nc([C@H](CC3CCN(C(=O)C(C)C)CC3)N3C(=O)CN(c4ccc(Oc5ccccc5)cc4)C3=O)n(-c3ccc(F)cc3)c2c1 | < 4.00 | – |
| 5.15 | 6.11 | Cc1ccc2nc([C@H](Cc3ccc(C#N)cc3)N3C(=O)CN(c4ccc(Oc5ccccc5)cc4)C3=O)n(C)c2c1 | < 4.00 | – |
| < 3.40 | < 4.70 | Cc1ccc2nc([C@H](Cc3ccc(Cl)cc3)N3C(=O)CN(c4ccc(Oc5ccccc5)cc4)C3=O)n(C)c2c1 | < 4.00 | – |
| 5.57 | 7.39 | Cc1ccc2nc([C@@H](CC3CCN(C(=O)C(C)C)CC3)N3C(=O)CN(c4ccc(Oc5ccccc5)cc4)C3=O)n(C)c2c1 | < 4.00 | – |
